“And” between values parts separate entries of the source, which are not always exact repeats. Equal entries are not always repeated. ± gives the expanded uncertainty stated by the source.
Legend:
[1] = for viscosity / mass density: 101 kPa, Liquid; for viscosity: Falling or rolling sphere viscometry; for mass density: Vibrating tube method
[2] = xn = mol fraction of the nth substance listed; conditions: 101 kPa, Liquid, x2 = 0; for viscosity: Falling or rolling sphere viscometry; for mass density: Vibrating tube method

## O [water]
[1]; 298.15 K
  viscosity: 0.89 ± 0.14 mPa·s
[1]; 303.15 K
  viscosity: 0.808 ± 0.13 mPa·s
[1]; 308.15 K
  viscosity: 0.74 ± 0.12 mPa·s
[1]; 313.15 K
  viscosity: 0.681 ± 0.11 mPa·s
  mass density: 992.15 ± 0.2 kg/m3
[1]; 318.15 K
  viscosity: 0.63 ± 0.1 mPa·s
[1]; 323.15 K
  viscosity: 0.593 ± 0.095 mPa·s
  mass density: 987.93 ± 0.2 kg/m3
[1]; 328.15 K
  viscosity: 0.56 ± 0.09 mPa·s
  mass density: 985.69 ± 0.2 kg/m3
[1]; 333.15 K
  viscosity: 0.528 ± 0.085 mPa·s
  mass density: 983.17 ± 0.2 kg/m3
[1]; 338.15 K
  viscosity: 0.519 ± 0.083 mPa·s and 0.5 ± 0.08 mPa·s
  mass density: 980.3 ± 0.2 kg/m3
[1]; 343.15 K
  viscosity: 0.51 ± 0.082 mPa·s and 0.473 ± 0.076 mPa·s
  mass density: 978.1 ± 0.2 kg/m3

## CCOS(=O)(=O)[O-].CC[N+]1(C)CCCCC1 [1-ethyl-1-methylpiperidinium ethyl sulfate]
[1]; 298.15 K
  viscosity: 1821 ± 360 mPa·s
  mass density: 1181.33 ± 2.7 kg/m3
[1]; 303.15 K
  viscosity: 1186 ± 220 mPa·s
  mass density: 1178.23 ± 2.7 kg/m3
[1]; 308.15 K
  viscosity: 795.7 ± 140 mPa·s
  mass density: 1175.1 ± 2.7 kg/m3
[1]; 313.15 K
  viscosity: 549.9 ± 97 mPa·s
  mass density: 1171.79 ± 2.6 kg/m3
[1]; 318.15 K
  viscosity: 391.8 ± 68 mPa·s
  mass density: 1168.85 ± 2.6 kg/m3
[1]; 323.15 K
  viscosity: 285.8 ± 48 mPa·s
  mass density: 1165.73 ± 2.6 kg/m3
[1]; 328.15 K
  viscosity: 212.6 ± 35 mPa·s
  mass density: 1162.62 ± 2.6 kg/m3
[1]; 333.15 K
  viscosity: 162.5 ± 27 mPa·s
  mass density: 1159.54 ± 2.6 kg/m3
[1]; 338.15 K
  viscosity: 126.1 ± 21 mPa·s
  mass density: 1156.56 ± 2.6 kg/m3
[1]; 343.15 K
  viscosity: 99.87 ± 16 mPa·s
  mass density: 1153.58 ± 2.6 kg/m3

## O [water] + CCOS(=O)(=O)[O-].CC[N+]1(C)CCOCC1
[2]; 298.15 K
  viscosity: 0.89 ± 0.14 mPa·s
[2]; 303.15 K
  viscosity: 0.808 ± 0.13 mPa·s
[2]; 308.15 K
  viscosity: 0.74 ± 0.12 mPa·s
[2]; 313.15 K
  viscosity: 0.681 ± 0.11 mPa·s
  mass density: 992.15 ± 0.2 kg/m3
[2]; 318.15 K
  viscosity: 0.63 ± 0.1 mPa·s
[2]; 323.15 K
  viscosity: 0.593 ± 0.095 mPa·s
  mass density: 987.93 ± 0.2 kg/m3
[2]; 328.15 K
  viscosity: 0.56 ± 0.09 mPa·s
  mass density: 985.69 ± 0.2 kg/m3
[2]; 333.15 K
  viscosity: 0.528 ± 0.085 mPa·s
  mass density: 983.17 ± 0.2 kg/m3
[2]; 338.15 K
  viscosity: 0.5 ± 0.08 mPa·s
  mass density: 980.3 ± 0.2 kg/m3
[2]; 343.15 K
  viscosity: 0.473 ± 0.076 mPa·s
  mass density: 978.1 ± 0.2 kg/m3

## O [water] + CCOS(=O)(=O)[O-].CC[N+]1(C)CCCC1
[2]; 313.15 K
  viscosity: 0.681 ± 0.11 mPa·s
  mass density: 992.15 ± 0.2 kg/m3
[2]; 318.15 K
  viscosity: 0.63 ± 0.1 mPa·s
[2]; 323.15 K
  viscosity: 0.593 ± 0.095 mPa·s
  mass density: 987.93 ± 0.2 kg/m3
[2]; 328.15 K
  viscosity: 0.56 ± 0.09 mPa·s
  mass density: 985.69 ± 0.2 kg/m3
[2]; 333.15 K
  viscosity: 0.528 ± 0.085 mPa·s
  mass density: 983.17 ± 0.2 kg/m3
[2]; 338.15 K
  viscosity: 0.519 ± 0.083 mPa·s
  mass density: 980.3 ± 0.2 kg/m3
[2]; 343.15 K
  viscosity: 0.51 ± 0.082 mPa·s
  mass density: 978.1 ± 0.2 kg/m3

## CCOS(=O)(=O)[O-].CC[N+]1(C)CCCC1 [1-ethyl-1-methylpyrrolidinium ethyl sulfate]
[1]; 313.15 K
  viscosity: 78.32 ± 13 mPa·s
  mass density: 1176.31 ± 2.7 kg/m3
[1]; 318.15 K
  viscosity: 64.72 ± 10 mPa·s
  mass density: 1173.63 ± 2.6 kg/m3
[1]; 323.15 K
  viscosity: 53.51 ± 8.6 mPa·s
  mass density: 1170.95 ± 2.6 kg/m3
[1]; 328.15 K
  viscosity: 44.82 ± 7.2 mPa·s
  mass density: 1168.27 ± 2.6 kg/m3
[1]; 333.15 K
  viscosity: 37.95 ± 6.1 mPa·s
  mass density: 1165.59 ± 2.6 kg/m3
[1]; 338.15 K
  viscosity: 32.87 ± 5.3 mPa·s
  mass density: 1162.91 ± 2.6 kg/m3
[1]; 343.15 K
  viscosity: 29.23 ± 4.7 mPa·s
  mass density: 1160.23 ± 2.6 kg/m3
[1]; Crystal, visual observation
  Normal melting temperature: 36.92 ± 0.5 °C

## CCOS(=O)(=O)[O-].CC[N+]1(C)CCOCC1 [4-ethyl-4-methylmorpholinium ethyl sulfate]
[1]; 298.15 K
  mass density: 1252.26 ± 3 kg/m3
[1]; 303.15 K
  mass density: 1249.05 ± 3 kg/m3
[1]; 308.15 K
  mass density: 1245.86 ± 3 kg/m3
[1]; 313.15 K
  viscosity: 2426 ± 480 mPa·s
  mass density: 1242.67 ± 3 kg/m3
[1]; 318.15 K
  viscosity: 1677 ± 320 mPa·s
  mass density: 1239.51 ± 3 kg/m3
[1]; 323.15 K
  viscosity: 1129 ± 210 mPa·s
  mass density: 1236.35 ± 3 kg/m3
[1]; 328.15 K
  viscosity: 779.3 ± 140 mPa·s
  mass density: 1233.2 ± 2.9 kg/m3
[1]; 333.15 K
  viscosity: 552.3 ± 98 mPa·s
  mass density: 1230.06 ± 2.9 kg/m3
[1]; 338.15 K
  viscosity: 400.8 ± 69 mPa·s
  mass density: 1226.93 ± 2.9 kg/m3
[1]; 343.15 K
  viscosity: 297.3 ± 50 mPa·s
  mass density: 1223.81 ± 2.9 kg/m3

## O [water] + CCOS(=O)(=O)[O-].CC[N+]1(C)CCCCC1
[2]; 298.15 K
  viscosity: 0.89 ± 0.14 mPa·s
[2]; 303.15 K
  viscosity: 0.808 ± 0.13 mPa·s
[2]; 308.15 K
  viscosity: 0.74 ± 0.12 mPa·s
[2]; 313.15 K
  viscosity: 0.681 ± 0.11 mPa·s
  mass density: 992.15 ± 0.2 kg/m3
[2]; 318.15 K
  viscosity: 0.63 ± 0.1 mPa·s
[2]; 323.15 K
  viscosity: 0.593 ± 0.095 mPa·s
  mass density: 987.93 ± 0.2 kg/m3
[2]; 328.15 K
  viscosity: 0.56 ± 0.09 mPa·s
  mass density: 985.69 ± 0.2 kg/m3
[2]; 333.15 K
  viscosity: 0.528 ± 0.085 mPa·s
  mass density: 983.17 ± 0.2 kg/m3
[2]; 338.15 K
  viscosity: 0.5 ± 0.08 mPa·s
  mass density: 980.3 ± 0.2 kg/m3
[2]; 343.15 K
  viscosity: 0.473 ± 0.076 mPa·s
  mass density: 978.1 ± 0.2 kg/m3
